Measured values taken from patent publication US6054441A, “Oxypurine nucleosides and their congeners, and acyl derivatives thereof, for improvement of hematopoiesis” (priority 1995, dated 2000).

Columns and labels:
Type in all cases: in vivo, Balb/C mice
[1] = tested on: hematopoietic recovery after cyclophosphamide; experiment: Timing of administration, hematopoietic recovery after cyclophosphamide (Example 41); conditions: day 7
Procedure: Cyclophosphamide (CP) (275 mg/kg, i.p.) was administered to 81 Balb/C female mice weighing approximately 20 grams each. Twenty-four hours later treatment was begun. Mice were given a 0.4 ml i.p. injection of either physiological saline (controls), Tween 80 (0.2%), or palmitoylguanosine (5 μmoles/mouse/day in 0.2% Tween 80). The timing of the treatments was varied within the groups. The control group was given saline on days 1-6. The mice receiving Tween 80 were treated either on days 1-4, 4-6 or 1-6. Palmitoylguanosine-treated mice were treated either on days 1-2, 1-4, 3-5, 4-6 or 1-6. If a group of mice received no Tween 80 or palmitoylguanosine on a given day, saline was administered by i.p. injection. Thus, there were 9 groups of 9 animals in all. On day 7 following CP administration all of the animals were bled and then sacrificed by cervical dislocation. Spleens were removed and weighed, and complete blood cell counts performed.

[2] = tested on: hematopoietic recovery after 5-fluorouracil; experiment: Hematopoietic recovery after 5-fluorouracil (Example 43)
Procedure: 5-fluorouracil (5-FU) (150 mg/kg,i.p.) was administered to fifty-four Balb/C female mice weighing approximately 20 grams each. Twenty-four hours later and each day thereafter for a total of 7 days, mice were given a 0.4 ml i.p. injection of either physiological saline (controls) or palmitoylguanosine (2.5 μmoles/mouse/day in 0.2% Tween 80). On days 8, 10 and 12 following administration of 5-FU nine animals from each group were bled and then sacrificed by cervical dislocation. Spleens were removed and weighed, and complete blood cell counts performed.

[3] = tested on: hematopoietic recovery after cyclophosphamide; experiment: Hematopoietic recovery after cyclophosphamide (Example 47)
Procedure: Cyclophosphamide (CP) (275 mg/kg, i.p.) was administered to 48 Balb/C female mice weighing approximately 20 grams each. Twenty-four hours later and each day thereafter for a total of 6 days, mice were given a 0.4 ml i.p. injection of either physiological saline (controls), benzoylguanosine (2.5 μmoles/mouse/day in 0.2% Tween 80), or palmitoylguanosine (2.5 μmoles/mouse/day in 0.2% Tween 80). On days 7 and 10 following CP administration 8 animals from each of the 3 groups were bled and then were sacrificed by cervical dislocation. Spleens were removed and weighed, and complete blood cell counts performed.

For `CCCCCCCCCCCCCCCC(=O)OC[C@H]1O[C@@H](n2cnc3c(=O)[nH]c(N)nc32)[C@H](O)[C@@H]1O`, the spleen weight ([1]; 5 μmoles/mouse/day, any time period, vs saline) was “significantly greater spleen weight”, the “total white blood cell (WBC) counts” value ([1]; all periods except days 4-6, vs Tween 80) was “significantly greater” and the spleen weight ([1]; any period, vs Tween 80) was “larger spleens”. The “total white blood cell (WBC) counts” value ([1]; each treatment period, vs saline) was “significantly greater”, the lymphocyte counts ([1]; treatment days 1-2 or 1-6) was “elevated lymphocyte counts” and the spleen weight ([1]; treatment days 1-4 or 1-6, among periods) was “greatest effect on spleen weight”. For the same compound, the total neutrophil counts ([1]; treatment days 1-6) was “greatest increase in total neutrophil counts”, the “total white blood cell (WBC) counts” value ([1]; treatment days 1-6, vs other periods) was “greatest effect” and the total neutrophils ([1]; treatment days 1 and 2, vs saline or Tween 80) was “significant increase in total neutrophils”. For the same compound, the Platelets ([2]; day 8, 2.5 μmoles/mouse/day i.p., vs control) was “significantly greater”, the Platelets ([2]; day 10, vs control) was “greater numbers of platelets” and the spleen size ([2]; day 10, vs saline) was “significantly larger”. The “number of neutrophils, fold greater than control” value ([2]; day 12) was 3 fold, the spleen weight ([2]; day 12, vs control) was “more than double” and the Neutrophils ([3]; day 7, 2.5 μmoles/mouse/day) was “significantly elevated”. For the same compound, the spleen weight ([3]; day 7, 2.5 μmoles/mouse/day) was “significantly elevated”, the “total white blood cells” value ([3]; day 7, 2.5 μmoles/mouse/day) was “significantly elevated” and the platelet number ([3]; day 10) was “significantly greater”.
